{
  "source": "the RepoRT retention time repository (doi:10.1016/j.jhazmat.2019.121712)",
  "data": [
    {"test": "Thermo Scientific Acclaim RSLC 120 C18, 100 × 2.1 mm, 2.2 µm, 30 °C; A: 90% water + 10% methanol + 0.01% formic acid + 5 mM ammonium formate; B: methanol + 0.01% formic acid + 5 mM ammonium formate; gradient (min/%B) 0.1/1 3/39 14/99.9 16/99.9", "conditions": "stereoisomer not certain", "units": {"LC retention time": "min"}, "values": [
      {"smiles": "CC(=O)c1ccc2c(c1)N(CCCN(C)C)c1ccccc1S2", "LC retention time": 7.47},
      {"smiles": "CN1CCCC(CC2c3ccccc3Sc3ccccc32)C1", "note": "(configuration not stated)", "LC retention time": 8.51},
      {"smiles": "CCCCC(CC)COC(=O)c1ccccc1C(=O)OCC(CC)CCCC", "note": "(configuration not stated)", "LC retention time": 15},
      {"smiles": "CCCCCn1nc(C(=O)NC(C(N)=O)C(C)C)c2ccccc21", "note": "(configuration not stated)", "LC retention time": 10.5},
      {"smiles": "CCc1cc(OC)c(CC(C)N)cc1OC", "note": "(configuration not stated)", "LC retention time": 6.88},
      {"smiles": "CCOP(=O)(Sc1ccccc1)Sc1ccccc1", "LC retention time": 10.8},
      {"smiles": "CCCCn1cc(C(=O)c2cccc3ccccc23)c2cccc(O)c21", "LC retention time": 11.2},
      {"smiles": "CNC(=O)Oc1ccc(N(C)C)c(C)c1", "LC retention time": 5.15},
      {"smiles": "CC(C)(C)NCC(O)COc1cccc2c1CCCC2=O", "note": "(configuration not stated)", "LC retention time": 4.84},
      {"smiles": "NCC(O)c1cccc(O)c1", "note": "(configuration not stated)", "LC retention time": 1.81},
      {"smiles": "COP(=S)(OC)Oc1ccc(S(C)=O)c(C)c1", "note": "(configuration not stated)", "LC retention time": 7.28},
      {"smiles": "CN1C2CCC1CC(OC(=O)c1c[nH]c3ccccc13)C2", "note": "(configuration not stated)", "LC retention time": 5.09},
      {"smiles": "CCN(CC)C(=O)C(C#N)=Cc1cc(O)c(O)c([N+](=O)[O-])c1", "LC retention time": 6.89},
      {"smiles": "CCC1OC(=O)CC(O)C(C)C(OC2OC(C)C(O)C(N(C)C)C2O)C(CCN2CC(C)CC(C)C2)CC(C)C(=O)C=CC(C)=CC1COC1OC(C)C(O)C(OC)C1OC", "note": "(configuration not stated)", "LC retention time": 6.69},
      {"smiles": "CCSc1cc(OC)c(CCN)cc1OC", "LC retention time": 5.88},
      {"smiles": "CCc1c(C)[nH]c2c1C(=O)C(CN1CCOCC1)CC2", "note": "(configuration not stated)", "LC retention time": 4.89},
      {"smiles": "CCCCCn1cc(C(=O)c2ccc(OC)cc2)c2ccccc21", "LC retention time": 11.8},
      {"smiles": "COP(=O)(OC)OC(C)=CC(=O)N(C)C", "LC retention time": 4.5},
      {"smiles": "Cc1cccc(N(C)C(=S)Oc2ccc3ccccc3c2)c1", "LC retention time": 12.2},
      {"smiles": "Cc1cccc(CC(C)N)c1", "note": "(configuration not stated)", "LC retention time": 5.17},
      {"smiles": "Cc1ccc(C(=CCN2CCCC2)c2cccc(C=CC(=O)O)n2)cc1", "LC retention time": 6.66},
      {"smiles": "Cc1ccc(C(CCN(C)C)c2ccccc2)cc1", "note": "(configuration not stated)", "LC retention time": 7.47},
      {"smiles": "CN1CCCC1Cc1c[nH]c2ccc(CCS(=O)(=O)c3ccccc3)cc12", "note": "(configuration not stated)", "LC retention time": 5.51},
      {"smiles": "CCCC(C)(COC(N)=O)COC(N)=O", "LC retention time": 5.94},
      {"smiles": "Nc1nc(N)c2nc(-c3ccccc3)c(N)nc2n1", "LC retention time": 4.68},
      {"smiles": "CC1=C(C(=O)O)N2C(=O)C(NC(=O)C(N)c3ccccc3)C2SC1", "note": "(configuration not stated)", "LC retention time": 4.08},
      {"smiles": "C1=CCC(c2cccnc2)NC1", "note": "(configuration not stated)", "LC retention time": 2.68},
      {"smiles": "Cc1c(N(C)CS(=O)(=O)O)c(=O)n(-c2ccccc2)n1C", "LC retention time": 4.49},
      {"smiles": "c1ccc(CC2=NCCN2)cc1", "LC retention time": 3.28},
      {"smiles": "CCN(CC)C(=O)Nc1ccc(OCC(O)CNC(C)(C)C)c(C(C)=O)c1", "note": "(configuration not stated)", "LC retention time": 5.24},
      {"smiles": "CCNC(C)C(=O)c1ccc(C)cc1", "note": "(configuration not stated)", "LC retention time": 4.74},
      {"smiles": "CCS(=O)CCSP(=O)(OC)OC", "note": "(configuration not stated)", "LC retention time": 3.98},
      {"smiles": "CCc1cccc(C)c1N(C(=O)CS(=O)(=O)O)C(C)COC", "note": "(configuration not stated)", "LC retention time": 7.34},
      {"smiles": "C=CCN1CCC23c4c5ccc(O)c4OC2C(O)C=CC3C1C5", "note": "(configuration not stated)", "LC retention time": 3.39},
      {"smiles": "CC(C)CC(C)Nc1ccc(Nc2ccccc2)cc1", "note": "(configuration not stated)", "LC retention time": 9.92},
      {"smiles": "CC1=C(C(=O)Nc2ccccc2)SCCO1", "LC retention time": 7.46},
      {"smiles": "Cc1cccc(C)c1NC(=O)C1CCCCN1C", "note": "(configuration not stated)", "LC retention time": 4.66},
      {"smiles": "CCCCC(CC)COC(=O)C(C#N)=C(c1ccccc1)c1ccccc1", "note": "(configuration not stated)", "LC retention time": 13.4},
      {"smiles": "CC12C=CC(=O)C=C1CCC1C2CCC2(C)C(O)CCC12", "note": "(configuration not stated)", "LC retention time": 9.03},
      {"smiles": "CC1C(c2ccccc2)OCCN1C", "note": "(configuration not stated)", "LC retention time": 4.06},
      {"smiles": "CCC(Cc1ccc2c(c1)OCO2)NC", "note": "(configuration not stated)", "LC retention time": 4.66},
      {"smiles": "CN1CCN(CCCN2c3ccccc3Sc3ccc(S(=O)(=O)N(C)C)cc32)CC1", "LC retention time": 8.15},
      {"smiles": "Cc1ccc(-c2nc3ccc(C)cn3c2CC(=O)N(C)C)cc1", "LC retention time": 5.8},
      {"smiles": "CNC(=C[N+](=O)[O-])NCCSCc1ccc(C[N+](C)(C)[O-])o1", "LC retention time": 3.43},
      {"smiles": "CCN(CC)CCOCCOC(=O)C(CC)(CC)c1ccccc1", "LC retention time": 8.04},
      {"smiles": "COC(=O)c1ccccc1S(=O)(=O)NC(=O)Nc1nc(C)nc(OC)n1", "LC retention time": 6.31},
      {"smiles": "CCCCCCCCc1ccc(OCCOCCO)cc1", "LC retention time": 14.1},
      {"smiles": "CCN(CC)C(=O)C1(c2ccccc2)CC1CN", "note": "(configuration not stated)", "LC retention time": 5.73},
      {"smiles": "CCNP(=S)(OC)OC(C)=CC(=O)OC(C)C", "note": "(configuration not stated)", "LC retention time": 9.79},
      {"smiles": "CCCNCC(O)COc1ccccc1C(=O)CCc1ccccc1", "note": "(configuration not stated)", "LC retention time": 7.81},
      {"smiles": "CC1(C)CC1C(=O)NC(=CCCCCSCC(N)C(=O)O)C(=O)O", "note": "(configuration not stated)", "LC retention time": 4.88},
      {"smiles": "COCC(NC(C)=O)C(=O)NCc1ccccc1", "note": "(configuration not stated)", "LC retention time": 5.09},
      {"smiles": "Cc1ccccc1N1CCN(CCc2nnc3n2CCCC3)CC1", "LC retention time": 5.66},
      {"smiles": "CC[N+]1([O-])CCCC1CNC(=O)c1cc(S(=O)(=O)CC)c(N)cc1OC", "note": "(configuration not stated)", "LC retention time": 4.33},
      {"smiles": "CCCc1nn(C)c2c(=O)[nH]c(-c3cc(C(=O)CN4CCN(CCO)CC4)ccc3OCC)nc12", "LC retention time": 6.94},
      {"smiles": "c1ccc(Nc2ccccc2)cc1", "LC retention time": 10.1},
      {"smiles": "CC1CCCC(C)N1CCCC(O)(c1ccccc1)c1ccccn1", "note": "(configuration not stated)", "LC retention time": 6.01},
      {"smiles": "CCN1CCN(C(=O)NC(C(=O)NC2C(=O)N3C(C(=O)O)=C(CSc4nnnn4C)CSC23)c2ccc(O)cc2)C(=O)C1=O", "note": "(configuration not stated)", "LC retention time": 4.36},
      {"smiles": "CC(C)N(C(=O)CS(=O)(=O)O)c1ccccc1", "LC retention time": 5.46},
      {"smiles": "COC(=O)C1C2CCC(CC1OC(=O)c1ccccc1)N2", "note": "(configuration not stated)", "LC retention time": 5.15},
      {"smiles": "CNC(C)C(O)c1ccccc1", "note": "(configuration not stated)", "LC retention time": 3.76},
      {"smiles": "CNC(=O)Nc1nc2ccccc2s1", "LC retention time": 7.13},
      {"smiles": "CN(C)C(=O)C(c1ccccc1)c1ccccc1", "LC retention time": 8.57},
      {"smiles": "CC(Cc1ccc(C(C)(C)C)cc1)CN1CC(C)OC(C)C1", "note": "(configuration not stated)", "LC retention time": 10.7},
      {"smiles": "CC(C)=CCN1CCC2(C)c3cc(O)ccc3CC1C2C", "note": "(configuration not stated)", "LC retention time": 5.46},
      {"smiles": "C=CCC(C(=O)NC(N)=O)C(C)C", "note": "(configuration not stated)", "LC retention time": 6.94},
      {"smiles": "CCc1cc2cc(OC)c(OC)cc2c(Cc2ccccc2)n1", "LC retention time": 8.29},
      {"smiles": "CNCC(C)CN1c2ccccc2Sc2ccc(OC)cc21", "note": "(configuration not stated)", "LC retention time": 8.33},
      {"smiles": "COC(=O)C1=C(C)NC(C)=C(C(=O)OC(C)(C)CN(C)CCC(c2ccccc2)c2ccccc2)C1c1cccc([N+](=O)[O-])c1", "note": "(configuration not stated)", "LC retention time": 11.1},
      {"smiles": "CC(COc1ccc(Oc2ccccc2)cc1)Oc1ccccn1", "note": "(configuration not stated)", "LC retention time": 12.6},
      {"smiles": "O=C(c1cccc2ccccc12)c1cn(CC2CCCCC2)c2ccccc12", "LC retention time": 13},
      {"smiles": "CCOC(=O)C(CCc1ccccc1)NC(C)C(=O)N1CC2(CC1C(=O)O)SCCS2", "note": "(configuration not stated)", "LC retention time": 8.23},
      {"smiles": "CNC(=O)Oc1cc(C)c(S(C)(=O)=O)c(C)c1", "LC retention time": 5.28},
      {"smiles": "Cc1ccsc1C=CC1=NCCCN1C", "LC retention time": 4.36},
      {"smiles": "COC(=O)C(C)N(C(=O)c1ccco1)c1c(C)cccc1C", "note": "(configuration not stated)", "LC retention time": 8.99},
      {"smiles": "CCC(CC)COC(C(=O)OCCN(C)C)(c1ccccc1)c1ccccc1", "LC retention time": 11.6},
      {"smiles": "Oc1ccc2ccccc2c1N=Nc1ccccc1", "LC retention time": 13.6},
      {"smiles": "CC12C=CC3=C4CCC(=O)C=C4CCC3C1CCC2O", "note": "(configuration not stated)", "LC retention time": 8.89},
      {"smiles": "COc1ccc(C2Sc3ccccc3N(CCN(C)C)C(=O)C2OC(C)=O)cc1", "note": "(configuration not stated)", "LC retention time": 7.18},
      {"smiles": "CCCCCCn1c(=O)c2c(ncn2C)n(C)c1=O", "LC retention time": 9.44},
      {"smiles": "O=C(OC1CC2CCC(C1)[N+]21CCCC1)C(O)(c1ccccc1)c1ccccc1", "note": "(configuration not stated)", "LC retention time": 5.72},
      {"smiles": "CNc1c(C)n(C)n(-c2ccccc2)c1=O", "LC retention time": 4.74}
    ]}
  ]
}
